Test results published in patent publication EP4233857A1, “BIOACTIVE COMPOUNDS OBTAINED FROM CY[…] SP. LEGE 181152” (CIIMAR - Centro Interdisciplinar de Investigação Marinha e …, priority 2022, dated 2023).
“Also recorded” adds a separate entry of the source.

How the values were obtained:
[1] = test system: human colorectal carcinoma cell line, HCT 116; assay: Cytotoxicity on 3D cancer spheroids, cell viability by acid phosphatase assay; type: cell-based
Description: The cytotoxicity of the fractions A to H2 was tested against the 3D model of the human colorectal carcinoma cell line, HCT 116. Colorectal cancer has one of the highest incidences among cancer diagnosis and is also one of cancers with the highest mortality rate. Over the years, the 3D cell models have taken over drug screening due to their biologically relevance when compared to the more conventional monolayer model. Three dimensional spheroids are more representative of the microenvironment of an in vivo tumour, with interactions between cells in the different layers - a necrotic core, an intermediate quiescent layer, and a proliferative outer layer.
Cells were seeded in ULA 96 well plates and incubated for 5 days for spheroid formation. After formation, spheroids were exposed to the fractions (25 µg/mL) for 96h. Cell viability was assessed by the acid phosphatase assay. In viable cells these intracellular enzymes hydrolyse […], which can be quantified colorimetrically at 405 nm. The results were expressed as the percentage of cell viability normalized to the solvent control (DMSO). […]

[2] = test system: HCT 116 human colon carcinoma cells; assay: Cytotoxicity on monolayer (2D) cells; type: cell-based; conditions: 2D assay (monolayer)
Description: The cytotoxic effect of phormidolide D (3) was tested against HCT 116 human colon carcinoma cells in monolayer (2D) and spheroid models (Figure 11). […] The difference of the IC50 values between the two cell models is commonly reported in the literature. Cancer spheroids tend to be more resistant to treatment than monolayer cells, and thus tend to present higher IC50 values. However, the cytotoxic effects in cancer spheroids are more realistic, because in this culture model, drug diffusion and cell proliferation effects are being tested. The results obtained for compound 3 are very interesting: despite its molecular weight (1064 g/mol) it can still penetrate the tightly packed cells of the outer layer of the spheroid, leading to a decrease in the cell viability in relevant concentrations (Figure 9). […]

brine shrimp = conditions: cited from earlier work
[3] = test system: panel of 60 human cancer cell lines; conditions: Williamson et al., 2002; cited from earlier work

Row | Substance | IC50 [1] | IC50 [2] | LD50 (brine shrimp) | cytotoxicity against a panel of 60 cancer cells [3]
1 | phormidolide D | 13.6 µM | 1.21 µM | – | –
2 | phormidolide A | – | – | 1.5 µM | noncytotoxic; also recorded: not considered active
